Measured values from patent US20070128217A1 (priority 2003, published 2007).

Tests used:
[1] = tested on: antibodies in sera from SARS patients (sera 1a, 1b, 2, 6, 37, 62, London, SARS-yellow, SARS-green); assay type: binding, human; parameters: Binding of serum 6 to linear peptides of protein X1 of SARS-CoV Urbani / Binding of serum 37 to linear peptides of protein X1 of SARS-CoV Urbani / Binding of serum 6 to looped/cyclic peptide (PEPSCAN-ELISA) / Binding of serum 37 to looped/cyclic peptide (PEPSCAN-ELISA) / Binding of serum 37 to looped/cyclic peptides of protein X1 of SARS-CoV Urbani / Binding of serum 6 to linear peptides of protein X2 / Binding of serum 37 to linear peptides of protein X2 / Binding of serum 37 to looped/cyclic peptides of protein X2 of SARS-CoV Urbani / Binding of serum 6 to linear peptides of protein M of SARS-CoV Urbani / Binding of serum 37 to linear peptides of protein M of SARS-CoV Urbani / Binding of serum 6 to looped/cyclic peptides of protein M of SARS-CoV Urbani / Binding of serum 37 to looped/cyclic peptides of protein M of SARS-CoV Urbani / Binding of serum 6 to linear peptides of protein X3 of SARS-CoV Urbani / Binding of serum 37 to linear peptides of protein X3 of SARS-CoV Urbani / Binding of serum 37 to looped/cyclic peptides of protein X3 of SARS-CoV Urbani / Binding of serum 6 to linear peptides of protein X4 of SARS-CoV Urbani / Binding of serum 37 to linear peptides of protein X4 of SARS-CoV Urbani / Binding of serum 37 to looped/cyclic peptides of protein X4 of SARS-CoV Urbani / Binding of serum 6 to linear peptides of protein X5 of SARS-CoV Urbani / Binding of serum 37 to linear peptides of protein X5 of SARS-CoV Urbani / Binding of serum 37 to looped/cyclic peptides of protein X5 of SARS-CoV Urbani / Binding of serum 6 to linear peptides of protein N of SARS-CoV Urbani / Binding of serum 37 to linear peptides of protein N of SARS-CoV Urbani / Binding of serum 6 to linear peptide (PEPSCAN-ELISA) / Binding of serum 1a to looped/cyclic peptides of protein N of SARS-CoV Urbani / Binding of serum 1b to looped/cyclic peptides of protein N of SARS-CoV Urbani / Binding of serum 2 to looped/cyclic peptides of protein N of SARS-CoV Urbani / Binding of serum 6 to looped/cyclic peptides of protein N of SARS-CoV Urbani / Binding of serum 37 to looped/cyclic peptides of protein N of SARS-CoV Urbani / Binding of serum 62 to looped/cyclic peptides of protein N of SARS-CoV Urbani / Binding of serum London to looped/cyclic peptides of protein N of SARS-CoV Urbani / Binding of serum SARS-green to looped/cyclic peptides of protein N of SARS-CoV Urbani: unit not given here
[2] = tested on: control sera (pooled serum of ten healthy LUMC hospital workers; commercial negative donor pooled serum from the Dutch bloodbank); assay type: binding, human; parameters: Binding of Control serum LUMC to linear peptides / Binding of Control serum Blood-bank to linear peptides / Binding of Control serum LUMC to looped peptides / Binding of Control Serum Blood-Bank to Looped peptides / Binding of Control serum LUMC to linear peptides of the protein M of SARS-CoV Urbani / Binding of Control serum Blood-bank to linear peptides of the protein M of SARS-CoV Urbani / Binding of Control serum LUMC to looped peptides of the protein M of SARS-CoV Urbani / Binding of Control Serum Blood-Bank to Looped peptides of the protein M of SARS-CoV Urbani: unit not given here
[3] = tested on: rabbit serum obtained by immunizing a rabbit with the SARS-CoV strain Frankfurt 1; assay type: binding; parameters: Binding of a rabbit serum to linear peptides / Binding of a rabbit serum to looped peptides / Rabbit serum linear peptides / Rabbit serum looped peptides / Binding of a rabbit serum to linear peptides of protein N of SARS-CoV Urbani (Rabbit serum linear peptides) / Binding of a rabbit serum to looped/cyclic peptides of protein N of SARS-CoV Urbani (Rabbit serum looped peptides): unit not given here

VAAGMEAQFLYLYAL
Binding of serum 1a to linear peptides of protein X1 of SARS-CoV Urbani [1]: 0.7
Binding of serum 1a to looped/cyclic peptide (PEPSCAN-ELISA) [1]: 0.5
Binding of serum 1b to linear peptides of protein X1 of SARS-CoV Urbani [1]: 0.6
Binding of serum 1b to looped/cyclic peptide (PEPSCAN-ELISA) [1]: 0.4
Binding of serum 2 to linear peptides of protein X1 of SARS-CoV Urbani [1]: 0.5
Binding of serum 2 to looped/cyclic peptide (PEPSCAN-ELISA) [1]: 0.4
Binding of serum 6 to linear peptides of protein X1 of SARS-CoV Urbani [1]: 0.4
Binding of serum 6 to looped/cyclic peptide (PEPSCAN-ELISA) [1]: 0.3
Binding of serum 37 to linear peptides of protein X1 of SARS-CoV Urbani [1]: 0.5
Binding of serum 37 to looped/cyclic peptide (PEPSCAN-ELISA) [1]: 0.5
Binding of serum 62 to linear peptides of protein X1 of SARS-CoV Urbani [1]: 0.4
Binding of serum 62 to looped/cyclic peptide (PEPSCAN-ELISA) [1]: 0.5
Binding of serum London to linear peptides of protein X1 of SARS-CoV Urbani [1]: 0.2
Binding of serum London to looped/cyclic peptide (PEPSCAN-ELISA) [1]: 0.2
Binding of serum SARS-green to linear peptides of protein X1 of SARS-CoV Urbani [1]: 0.2
Binding of serum SARS-green to looped/cyclic peptide (PEPSCAN-ELISA) [1]: 0.3
Binding of serum SARS-yellow to linear peptides of protein X1 of SARS-CoV Urbani [1]: 0.3
Binding of serum SARS-yellow to looped/cyclic peptide (PEPSCAN-ELISA) [1]: 0.5
Binding of Control Serum Blood-Bank to Looped peptides [2]: 0.5
Binding of Control serum Blood-bank to linear peptides [2]: 0.5
Binding of Control serum LUMC to linear peptides [2]: 0.9
Binding of Control serum LUMC to looped peptides [2]: 0.8
Binding of a rabbit serum to linear peptides [3]: 0.1
Binding of a rabbit serum to looped peptides [3]: 0.5

GTIVTRPLMESELVI
Binding of serum 1a to linear peptides of protein M of SARS-CoV Urbani [1]: 0.8
Binding of serum 1b to linear peptides of protein M of SARS-CoV Urbani [1]: 0.7
Binding of serum 2 to linear peptides of protein M of SARS-CoV Urbani [1]: 0.7
Binding of serum 6 to linear peptides of protein M of SARS-CoV Urbani [1]: 0.5
Binding of serum 37 to linear peptides of protein M of SARS-CoV Urbani [1]: 0.6
Binding of serum 62 to linear peptides of protein M of SARS-CoV Urbani [1]: 0.7
Binding of serum London to linear peptides of protein M of SARS-CoV Urbani [1]: 0.3
Binding of serum SARS-green to linear peptides of protein M of SARS-CoV Urbani [1]: 0.7
Binding of serum SARS-yellow to linear peptides of protein M of SARS-CoV Urbani [1]: 0.2
Recognition of the peptide by sera of SARS-CoV infected individuals, and form (linear, looped/cyclic) in which it is recognized [1]: recognized in looped/cyclic form
Binding of Control Serum Blood-Bank to Looped peptides of the protein M of SARS-CoV Urbani [2]: 0.8
Binding of Control serum Blood-bank to linear peptides of the protein M of SARS-CoV Urbani [2]: 0.7
Binding of Control serum LUMC to linear peptides of the protein M of SARS-CoV Urbani [2]: 0.6
Binding of Control serum LUMC to looped peptides of the protein M of SARS-CoV Urbani [2]: 1.0
Rabbit serum linear peptides [3]: 0.1
Rabbit serum looped peptides [3]: 0.5

TCTPNVTINCQDPAG
Binding of serum 1a to linear peptides of protein X5 of SARS-CoV Urbani [1]: 0.8
Binding of serum 1a to looped/cyclic peptides of protein X5 of SARS-CoV Urbani [1]: 0.2
Binding of serum 1b to linear peptides of protein X5 of SARS-CoV Urbani [1]: 0.6
Binding of serum 1b to looped/cyclic peptides of protein X5 of SARS-CoV Urbani [1]: 0.0
Binding of serum 2 to linear peptides of protein X5 of SARS-CoV Urbani [1]: 0.6
Binding of serum 2 to looped/cyclic peptides of protein X5 of SARS-CoV Urbani [1]: 0.1
Binding of serum 6 to linear peptides of protein X5 of SARS-CoV Urbani [1]: 0.8
Binding of serum 6 to looped/cyclic peptides of protein X5 of SARS-CoV Urbani [1]: 0.1
Binding of serum 37 to linear peptides of protein X5 of SARS-CoV Urbani [1]: 0.7
Binding of serum 37 to looped/cyclic peptides of protein X5 of SARS-CoV Urbani [1]: 0.1
Binding of serum 62 to linear peptides of protein X5 of SARS-CoV Urbani [1]: 0.8
Binding of serum 62 to looped/cyclic peptides of protein X5 of SARS-CoV Urbani [1]: 0.1
Binding of serum London to linear peptides of protein X5 of SARS-CoV Urbani [1]: 0.8
Binding of serum London to looped/cyclic peptides of protein X5 of SARS-CoV Urbani [1]: 0.1
Binding of serum SARS-green to linear peptides of protein X5 of SARS-CoV Urbani [1]: 0.8
Binding of serum SARS-green to looped/cyclic peptides of protein X5 of SARS-CoV Urbani [1]: 0.2
Binding of serum SARS-yellow to linear peptides of protein X5 of SARS-CoV Urbani [1]: 0.2
Binding of serum SARS-yellow to looped/cyclic peptides of protein X5 of SARS-CoV Urbani [1]: 0.0
Binding of Control Serum Blood-Bank to Looped peptides [2]: 0.4
Binding of Control serum Blood-bank to linear peptides [2]: 0.7
Binding of Control serum LUMC to linear peptides [2]: 0.5
Binding of Control serum LUMC to looped peptides [2]: 0.2
Rabbit serum linear peptides [3]: 0.5
Rabbit serum looped peptides [3]: 0.0
